Measurements taken from US5276034A, “Substituted imidazolyl-alkyl-piperazine and -diazepine derivatives” (Syntex Pharmaceutical Ltd., priority 1991, dated 1994).

Key:
[1] = test system: abnormal neurones in brain after bilateral common carotid artery occlusion; assay: Five minute model of bilateral common carotid artery occlusion in the gerbil with 72 hour survival; assay type: in vivo; settings: then b.i.d. for 72 h
Description: In vivo protective effects of the compounds of this invention against the deleterious effects of cerebral ischemia are determined by use of the standard gerbil brain ischemia model.
A. Five minute model of bilateral common carotid artery occlusion in the gerbil with 72 hour survival
2) Sham-operated animals--The animals were anesthetized with a halothane-nitrous oxide-oxygen mixture. […] The microscopic sections were prepared and counted as in 1) above. In this case 7 animals were used and 100 microscopic fields were counted.
3) Untreated ischemic controls--In this case animals were subjected to 5 minute bilateral carotid artery occlusion with 72 hour survival. The microscopic sections were prepared and counted as in 1) above. In this case 12 animals were used and 120 microscopic fields were counted.
(§1) 4) Parenteral, 15 minute pre-ischemia treated--The animals were given 500 mg/kg i.p. of 1-diphenylmethyl-4-[(2-(4-methylphenyl)-5-methylimidazol-4-yl)methyl]piperazine trihydrochloride 15 minutes prior to ischaemic insult. The treatment was repeated b.i.d. for 72 hours. The microscopic sections were prepared and counted as in 1) above. In this case 10 animals were used and 100 microscopic fields were counted.
as §1, with “5) Parenteral” for “4) Parenteral,”, “pre-ischemic” for “pre-ischemia”, “250” for “500”, “Treatment” for “The treatment”, “6” for “10”, “60” for “100”
as §1, with “6) Parenteral” for “4) Parenteral,”, “post-ischemia” for “pre-ischemia”, “after” for “prior to”, “9” for “10”, “90” for “100”
7) Oral, pre-ischemia treated--The animals were given 5 mg/kg p.o. b.i.d. of 1-diphenyl-methyl-4-[(2-(4-methylphenyl)-5-methylimidazol-4-yl)-methyl]piperazine trihydrochloride for 3 days and on the 4th day at 1 hour pre-ischaemic. Treatment was repeated b.i.d. for 72 hours. The microscopic sections were prepared and counted as in 1) above. In this case 11 animals were used and 110 microscopic fields were counted.
8) Oral, pre-ischemia treated--The animals were given 10 mg/kg p.o. of 1-diphenyl-methyl-4-[(2-(4-methylphenyl)-5-methylimidazol-4-yl)-methyl]piperazine trihydrochloride for 3 days and on 4th day at 1 hour pre-ischaemia.Treatment was repeated b.i.d. for 72 hours. The microscopic sections were prepared and counted as in 1) above. In this case 9 animals were used and 90 microscopic fields were counted.

[2] = test system: abnormal neurones in brain areas after four vessel occlusion; assay: Ten minute model of four vessel occlusion with 72 hour survival; assay type: in vivo; settings: 100 mg/kg i.a. 5 min plus 500 mg/kg i.p. 15 min post-ischaemia
Description: B. Ten minute Model of four vessel occlusion with 72 hour survival.
The procedure used was that of Alps, et al., Neurology, 37, 809 (1987). The object of this assay was to count abnormally appearing cells in 7 different areas and exymers as a percentage of the total area counted. The number of counts per structure depended upon size, e.g., cortical areas had double the number of other areas. Mean whole brain scores were also determined for percent abnormalities. Normal brains were also used to account for incidence of artifact changes attributed to the fixation process.
. In this case 6 animals were used with the results shown in the below table.
2) Untreated (saline) ischemic controls--The animals were subjected to 10 minutes of bilateral common cartoid artery occlusion (with previously surgically sealed vertebral arteries) with 72 hours survival. The microscopic sections were prepared as in 1) above. In this case 11 animals were used with the results shown in the below table.
Parenteral, post-ischaemia treated--The animals were given 100 mg/kg i.a. of 1-diphenyl-methyl-4-[(2-(4-methylphenyl)-5-methylimidazol-4-yl)-methyl]piperazine trihydrochloride 5 minutes post-ischaemia plus 500 mg/kg i.p. of 1-diphenyl-methyl-4-[(2-(4-methylphenyl)-5-methylimidazol-4-yl)-methyl]piperazine trihydrochloride 15 minutes post-ischaemia. The microscopic sections were prepared according to 1) above. In this case 5 animals were used with the results shown in the below table.

[3] = test system: pentylenetetrazole-induced seizures and mortality; assay: Effect on pentylenetetrazole-induced seizures and mortality in the mouse; assay type: in vivo, mouse (male CDI); settings: 500 mg/kg i.p., pentylenetetrazole 100 mg/kg s.c.
Description: C. The effect of 1-diphenyl-methyl-4-[(2-(4-methylphenyl)-5-methylimidazol-4-yl)-methyl]piperazine trihydrochloride on pentylenetetrazole-induced seizures and mortality in the mouse.
The procedure used was that described in Allely, and Alps, Br. J. Phramacol. Proc. Suppl., 92, 605P (1987). Groups of 20 or more (see n in table) male CDI mice were predosed with 500 mg/kg i.p. of 1-diphenyl-methyl-4-[(2-(4-methylphenyl)-5-methylimidazol-4-yl)methyl]piperazine trihydrochloride at one of three dosing schedules--A (15minutes), B (60 minutes), or C (3 days b.i.d. plus 15 minutes on 4th day)--before challenging with 100 mg/kg of pentylenetetrazole s.c. The animals were then observed for a 30 minute period and the occurrence of clonic or tonic seizures or death noted. Statistical analysis was by a Chi squared test of association. Results compared against saline treated animals are shown in the below table.

[4] = test system: male normotensive rats (urine volume, sodium and potassium excretion); assay: Diuresis in male normotensive rats; assay type: in vivo, rat
Description: Male normotensive rats weighing 290-380 g were divided into four groups of seven animals. All animals were fasted and deprived of water overnight. The following morning, each group of rats was hydrated with deionized water ([…]. p.o.) 45 minutes prior to the administration of vehicle (1% polysorbate 80 in deionized water) or 1-diphenyl-methyl-4-[(2-(4-methylphenyl)-5-methylimidazol-4-yl)methyl]-piperazine trihydrochloride at doses of 5, 15, or 30 mg/kg p.o. Fifteen minutes post-drug, the animals were saline loaded (30 ml/kg, p.o. 0.9% sodium chloride) and placed individually in metabolism cages. Urine was collected at 1, 3, and 6 hour intervals post-dose. Urine volumes were measured and sodium and potassium levels were determined by flame photometry. Differences between control and treated values were evaluated by one way analysis of variance.

[5] = test system: barium-stimulated intestinal transit of the charcoal meal; assay: Irritable bowel syndrome: intestinal transit of a charcoal meal in conscious mice, barium chloride stimulated; assay type: in vivo, mouse
Description: (§2) The test used is a modification of the method of Macht and Barba-Gose, J. Amer. Pharm. […] In the present model, intestinal transit in conscious mice (15-20 g) was accelerated with an oral dose of barium chloride (300 mg/kg) administered at the same time as the charcoal meal. The animals were sacrificed 10 minutes later and the distance travelled by the charcoal measured. 1-diphenyl-methyl-4-[(2-(4-methylphenyl)-5-methylimidazol-4-yl)methyl]-piperazine trihydrochloride was given as a 15 minute oral pre-treatment and its effect on non-stimulated or barium-stimulated intestinal transit of the charcoal meal was calculated.

[6] = test system: non-stimulated intestinal transit of the charcoal meal; assay: Intestinal transit of a charcoal meal in conscious mice, non-stimulated; assay type: in vivo; settings: Mus musculus, po, 15 min pre-treatment, read-out: % Inhibition Normal Transition
Description: as §2

[7] = in vivo; cited from earlier work
[8] = schedule C (3 days b.i.d. plus 15 minutes on 4th day), n=24

Cc1ccc(-c2nc(CN3CCN(C(c4ccccc4)c4ccccc4)CC3)c(C)[nH]2)cc1.Cl.Cl.Cl [1-diphenylmethyl-4-[(2-(4-methylphenyl)-5-methylimidazol-4-yl)methyl]piperazine trihydrochloride]
mean % abnormal neurones ([1]; 5 mg/kg p.o. b.i.d. 3 days and 1 h pre-ischemia): 3.00±1.00%
mean % abnormal neurones ([1]; 10 mg/kg p.o. 3 days and 1 h pre-ischemia): 22.00±3.10%
mean % abnormal neurones ([1]; 250 mg/kg i.p. 15 min pre-ischemia): 27.20±4.30%
mean % abnormal neurones ([1]; 500 mg/kg i.p. 15 min post-ischemia): 41.70±4.60%
mean % abnormal neurones ([1]; 500 mg/kg i.p. 15 min pre-ischemia): 26.90±3.30%
Mean % Abnormal Neurones, Hip C2-5 ([2]; Hip C2-5): 1.78 ± 0.99%
Mean % Abnormal Neurones, Hip CA ([2]; Hip CA): 16.76 ± 4.00%
Mean % Abnormal Neurones, Hip. Cortex ([2]; Hip. Cortex): 2.41 ± 0.30%
Mean % Abnormal Neurones, Purk. cells ([2]; Purk. cells): 2.22 ± 0.79%
Mean % Abnormal Neurones, Str. Cortex ([2]; Str. Cortex): 2.01 ± 0.29%
Mean % Abnormal Neurones, Striatum ([2]; Striatum): 1.54 ± 0.33%
Mean % Abnormal Neurones, Thalamus ([2]; Thalamus): 0.64 ± 0.25%
% clonic seizures ([3]; schedule A (15 minutes), n=20): 85.0%
% death ([3]; schedule A (15 minutes), n=20): 50.0%
% tonic seizures ([3]; schedule A (15 minutes), n=20): 85.0%
% clonic seizures ([3]; schedule B (60 minutes), n=25): 88.0%
% death ([3]; schedule B (60 minutes), n=25): 36.0%
% tonic seizures ([3]; schedule B (60 minutes), n=25): 64.0%
% clonic seizures [3, 8]: 66.7%
% death [3, 8]: 45.0%
% tonic seizures [3, 8]: 41.7%
Potassium ion, Cumulative ([4]; 5 mg/kg p.o., 1 hour): .04 ± .03 mEq
Sodium ion, Cumulative ([4]; 5 mg/kg p.o., 1 hour): .07 ± .06 mEq
Urine Volume, Cumulative ([4]; 5 mg/kg p.o., 1 hour): 5.7 ± 2.5 mL
Potassium ion, Cumulative ([4]; 5 mg/kg p.o., 3 hours): .16 ± .09 mEq
Sodium ion, Cumulative ([4]; 5 mg/kg p.o., 3 hours): .39 ± .25 mEq
Urine Volume, Cumulative ([4]; 5 mg/kg p.o., 3 hours): 9.5 ± 3.6 mL
Potassium ion, Cumulative ([4]; 5 mg/kg p.o., 6 hours): .26 ± .12 mEq
Sodium ion, Cumulative ([4]; 5 mg/kg p.o., 6 hours): .73 ± .32 mEq
Urine Volume, Cumulative ([4]; 5 mg/kg p.o., 6 hours): 11.8 ± 3.9 mL
Potassium ion, Cumulative ([4]; 15 mg/kg p.o., 1 hour): .04 ± .05 mEq
Sodium ion, Cumulative ([4]; 15 mg/kg p.o., 1 hour): .12 ± .16 mEq
Urine Volume, Cumulative ([4]; 15 mg/kg p.o., 1 hour): 5.7 ± 4.4 mL
Potassium ion, Cumulative ([4]; 15 mg/kg p.o., 3 hours): .12 ± .06 mEq
Sodium ion, Cumulative ([4]; 15 mg/kg p.o., 3 hours): .44 ± .20 mEq
Urine Volume, Cumulative ([4]; 15 mg/kg p.o., 3 hours): 9.8 ± 3.2 mL
Potassium ion, Cumulative ([4]; 15 mg/kg p.o., 6 hours): .20 ± .08 mEq
Sodium ion, Cumulative ([4]; 15 mg/kg p.o., 6 hours): .68 ± .28 mEq
Urine Volume, Cumulative ([4]; 15 mg/kg p.o., 6 hours): 11.7 ± 3.3 mL
Potassium ion, Cumulative ([4]; 30 mg/kg p.o., 1 hour): .04 ± .03 mEq
Sodium ion, Cumulative ([4]; 30 mg/kg p.o., 1 hour): .15 ± .12 mEq
Urine Volume, Cumulative ([4]; 30 mg/kg p.o., 1 hour): 6.5 ± 2.3 mL
Potassium ion, Cumulative ([4]; 30 mg/kg p.o., 3 hours): .15 ± .08 mEq
Sodium ion, Cumulative ([4]; 30 mg/kg p.o., 3 hours): .79 ± .38 mEq
Urine Volume, Cumulative ([4]; 30 mg/kg p.o., 3 hours): 10.5 ± 2.5 mL
Potassium ion, Cumulative ([4]; 30 mg/kg p.o., 6 hours): .27 ± .06 mEq
Sodium ion, Cumulative ([4]; 30 mg/kg p.o., 6 hours): 1.48 ± .24 mEq
Urine Volume, Cumulative ([4]; 30 mg/kg p.o., 6 hours): 14.6 ± 1.4 mL
diuresis ([4]; 30 mg/kg p.o., at 1 hour and 6 hours post-drug): significant (p<0.05) diuresis
natriuretic effect ([4]; 30 mg/kg p.o., at the 3 and 6 hour time periods): significant natriuretic effect
kaliuretic effects ([4]; following compound administration, p.o.): No significant kaliuretic effects were observed
inhibition at 5 mg/kg ([5]; Mus musculus, po, 5 mg/kg p.o., 15 min pre-treatment, % of total transit induced by Ba^+2, read-out: % Inhibition of Ba^+2 effect): 14%
inhibition at 25 mg/kg ([5]; Mus musculus, po, 25 mg/kg p.o., 15 min pre-treatment, % of total transit induced by Ba^+2, read-out: % Inhibition of Ba^+2 effect): -30.4%
inhibition at 60 mg/kg ([5]; Mus musculus, po, 60 mg/kg p.o., 15 min pre-treatment, % of total transit induced by Ba^+2, read-out: % Inhibition of Ba^+2 effect): -31.7%
inhibition at 5 mg/kg ([6]; 5 mg/kg p.o.): -19.3%
inhibition at 25 mg/kg ([6]; 25 mg/kg p.o.): -28.7%
inhibition at 60 mg/kg ([6]; 60 mg/kg p.o.): -16.1%

[Ba+2].[Cl-].[Cl-] [barium chloride, reference compound]
% Change Ba^+2 ([5]; barium chloride 300 mg/kg oral, effect of Ba^+2 on transit): +93%

Clc1ccccc1CN1CCc2sccc2C1 [ticlopidine]
risk of a second ischemic event [7]: demonstrated to reduce the risk of a second ischemic event
